Measurements as given in paper PMC5487681, “Identification of Antifungal H^+-ATPase Inhibitors with Effect on Plasma Membrane Potential” (Antimicrobial Agents and Chemotherapy, 2017).
Values after ≈ are worked out from the molar mass of the structure shown. Read-outs that look alike come from different tables or passages of the source. Residues, ends and D or L forms follow the SMILES beside them.

Experiments:
[1] = target: T1, Na^+,K^+-ATPase (Sus scrofa, UniProt P05024); test: ATP hydrolysis assay, Na+,K+-ATPase; type: biochemical, porcine
T1 construct: from tissue; host or cells: porcine kidney (gift of Natalya Fedosova, Aarhus University)
Procedure: (§1) Rabbit sarcoplasmic reticulum membranes containing sarcoplasmic endoplasmic reticulum Ca^2+-ATPase (SERCA) were kindly provided by Claus E. Olesen and Jesper V. Møller, Aarhus University, and prepared as described in reference. Porcine kidney Na^+,K^+-ATPase was kindly provided by Natalya Fedosova, Aarhus University, and prepared as described in reference.
(§2) The protein activity levels were determined by measuring the amount of free phosphate produced from the ATP hydrolysis reaction. The assay was performed as described in reference. Each well contained ATPase enzyme, 2 μl of inhibitor (usually in the range of 333 to 0.01 μM) dissolved in dimethyl sulfoxide (DMSO) (Duchefa Biochemie, Haarlem, The Netherlands), and an assay buffer dependent on the enzyme for a final volume of 60 μl. Possible compound precipitation in the assay buffer was monitored using a Nephelostar plate reader measuring turbidity, and the information was taken into account in the IC50 determination. Pma1 assay buffer consisted of 20 mM 3-(N-morpholino)propanesulfonic acid (MOPS)–NaOH, pH 6.5 or 7.0, 8 mM MgSO4, 50 mM KNO3 (a vacuolar ATPase inhibitor), 25 mM sodium azide (a mitochondrial ATPase inhibitor), and 250 μM sodium molybdate (an acid phosphatase inhibitor). SERCA buffer consisted of 9 mM MOPS-NaOH, pH 7, 2.7 mM MgCl2, 90 μM CaCl2, and 72 mM KCl. Na^+,K^+-ATPase buffer consisted of 30 mM MOPS-NaOH, pH 7, 40 mM NaCl, 4 mM MgCl2, and 20 mM KCl. The concentration of protein was adjusted to obtain a signal of the optical density at 860 nm (OD860) of between 0.5 and 1.0 in the untreated samples (for all Pma1 batches, ∼1 to 2 μg/well; for SERCA and Na^+,K^+-ATPase, ∼0.1 to 0.2 μg/well).

[2] = tested on: Aspergillus fumigatus ATCC 13073; test: microbe, parasite or virus in culture; conditions: for MIC: Aspergillus fumigatus
Procedure: (§3) The following fungal isolates were used: Saccharomyces cerevisiae ATCC 9763, Candida albicans SC5314, Candida parapsilosis ATCC 22019, Candida tropicalis Ct016, Candida glabrata ATCC 90030, Aspergillus fumigatus ATCC 13073, and Aspergillus flavus ATCC MYA-1005. Frozen stocks of yeast isolates in glycerol (final concentration, 20%) were prepared by growing the cells to log phase in YPD medium at 30°C and 150 rpm. Frozen stocks of mold spores were prepared by harvesting spores from 7-day-old potato glucose agar plates in phosphate-buffered saline, 0.1% Tween 80 and aliquoting these spores in the presence of glycerol (final concentration, 20%). The cells were stored at −80°C. The cells or spores were thawed and diluted to a final concentration of 0.5 × 10^5 to 2.5 × 10^5 CFU/ml in sterile Milli-Q H2O. […] The plate was incubated for 20 to 24 h at 34°C (72 h for molds), and the OD490 was measured on a Victor X5 (PerkinElmer) plate reader. Mold growth assay plates were also visually inspected. The MIC was defined as the lowest concentration inhibiting the visual growth of the microorganism.

[3] = tested on: Candida albicans SC5314; test: microbe, parasite or virus in culture; conditions: for MIC: Candida albicans
Procedure: as §3

[4] = tested on: Candida glabrata ATCC 90030; test: microbe, parasite or virus in culture; conditions: for MIC: Nakaseomyces glabratus
Procedure: as §3

[5] = tested on: Candida parapsilosis ATCC 22019; test: microbe, parasite or virus in culture; conditions: for MIC: Lodderomyces parapsilosis
Procedure: as §3

[6] = tested on: Candida tropicalis Ct016; test: microbe, parasite or virus in culture; conditions: for MIC: Candida tropicalis
Procedure: as §3

[7] = target: Ca^2+-ATPase (SERCA1a) (Oryctolagus cuniculus, UniProt P04191); test: ATP hydrolysis assay, SERCA; type: biochemical, rabbit
Sequence of Ca^2+-ATPase (SERCA1a) (P04191 1-994 isoform P04191-2): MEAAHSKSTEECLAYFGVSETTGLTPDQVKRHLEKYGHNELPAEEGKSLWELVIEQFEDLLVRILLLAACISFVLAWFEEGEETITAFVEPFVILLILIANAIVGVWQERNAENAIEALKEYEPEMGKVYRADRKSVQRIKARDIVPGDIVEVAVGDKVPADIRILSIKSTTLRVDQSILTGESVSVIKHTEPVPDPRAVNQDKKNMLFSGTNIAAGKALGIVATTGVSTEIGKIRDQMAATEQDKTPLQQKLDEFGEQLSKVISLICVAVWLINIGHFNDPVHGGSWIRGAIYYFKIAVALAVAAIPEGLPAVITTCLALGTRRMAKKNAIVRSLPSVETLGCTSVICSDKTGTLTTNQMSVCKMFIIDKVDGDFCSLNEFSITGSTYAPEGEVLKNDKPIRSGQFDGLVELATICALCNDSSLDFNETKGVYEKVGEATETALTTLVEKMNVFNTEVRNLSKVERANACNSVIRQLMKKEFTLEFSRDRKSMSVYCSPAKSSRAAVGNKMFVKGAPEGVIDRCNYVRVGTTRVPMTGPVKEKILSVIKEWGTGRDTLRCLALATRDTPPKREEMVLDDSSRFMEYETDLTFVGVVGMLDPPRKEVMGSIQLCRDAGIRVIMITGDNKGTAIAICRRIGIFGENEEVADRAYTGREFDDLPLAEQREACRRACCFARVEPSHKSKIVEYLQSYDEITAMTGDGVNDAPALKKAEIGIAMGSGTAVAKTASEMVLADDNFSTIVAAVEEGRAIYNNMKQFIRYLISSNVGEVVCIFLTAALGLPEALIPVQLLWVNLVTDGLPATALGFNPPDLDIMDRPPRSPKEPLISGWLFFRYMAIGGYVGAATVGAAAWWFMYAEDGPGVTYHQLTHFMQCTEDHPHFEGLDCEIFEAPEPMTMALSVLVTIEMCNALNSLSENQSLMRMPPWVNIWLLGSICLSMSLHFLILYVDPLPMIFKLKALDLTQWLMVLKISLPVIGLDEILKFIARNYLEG
Procedure: as §1, §2

[8] = Table 1, ATP hydrolysis at pH 7.4 (compounds marked b), read-out: IC50 Na^+,K^+-ATPase
[9] = ATCC13073, 72 h, pH 7, read-out: MIC A. fumigatus
[10] = SC5314, pH 7, read-out: MIC C. albicans
[11] = ATCC90030, pH 7, read-out: MIC C. glabrata
[12] = ATCC22019, pH 7, read-out: MIC C. parapsilosis
[13] = CT016, pH 7, read-out: MIC C. tropicalis
[14] = Table 1, ATP hydrolysis at pH 7, read-out: IC50 Na^+,K^+-ATPase
[15] = Table 2, pH 7, n = 2, porcine kidney, read-out: IC50 for ATP hydrolysis, Na^+,K^+-ATPase
[16] = Table 2, pH 7, n = 2, rabbit SERCA1a, read-out: IC50 for ATP hydrolysis, SERCA
[17] = ATCC13073, read-out: MIC for growth inhibition, A. fumigatus
[18] = SC5314, read-out: Growth inhibition MIC, C. albicans in RPMI
[19] = SC5314, read-out: MIC for growth inhibition, C. albicans
[20] = ATCC90030, read-out: MIC for growth inhibition, C. glabrata
[21] = ATCC22019, read-out: MIC for growth inhibition, C. parapsilosis
[22] = CT016, read-out: MIC for growth inhibition, C. tropicalis

Cc1c(-c2ccccc2)[o+]c2ccccc2c1C#Cc1ccccc1 [Compound 6]
IC50 [1, 8]: 3.5 ± 3.7 µM
MIC [2, 9]: > 150 µM
MIC [3, 10]: > 150 µM
MIC [4, 11]: > 150 µM
MIC [5, 12]: > 150 µM
MIC [6, 13]: > 150 µM

COc1ccc(-c2cc(C(=O)Nc3ccc4c(c3)OCCO4)c3ccccc3n2)c(OC)c1 [Compound 8]
IC50 [1, 14]: > 105 µM
IC50 [7]: > 105 µM
MIC [2, 9]: > 38 µM
MIC [3, 10]: > 38 µM
MIC [4, 11]: > 38 µM
MIC [5, 12]: > 38 µM
MIC [6, 13]: > 38 µM

COc1ccc(-c2cc(C(=O)Nc3ccc(C(C)C)cc3)c3ccccc3n2)c(OC)c1 [Compound 3]
IC50 [1, 14]: > 105 µM
IC50 [7]: > 105 µM
MIC [2, 9]: > 150 µM
MIC [3, 10]: > 150 µM
MIC [4, 11]: > 150 µM
MIC [5, 12]: > 150 µM
MIC [6, 13]: > 150 µM

CCCCOc1ccc(C2C(C#N)=C(N)Oc3cc(O)ccc32)cc1 (stereo not shown) [Compound 11]
IC50 [1, 14]: 30.3 ± 2.4 µM
IC50 [7]: 15.7 ± 2 µM
MIC [2, 9]: > 150 µM
MIC [3, 10]: > 150 µM
MIC [4, 11]: > 150 µM
MIC [5, 12]: > 150 µM
MIC [6, 13]: > 150 µM

CCN(CC)CCCNc1nc(SC)nc2c1sc1nc(-c3ccccc3)c3c(c12)CCC3 [Compound 19]
IC50 [1, 15]: 5.5 ± 1.8 µM
IC50 [7, 16]: 4.4 ± 0.3 µM
MIC [2, 17]: 12 µM (≈ 5.73 µg/mL)
MIC [3, 18]: 7 µM (≈ 3.34 µg/mL)
MIC [3, 19]: 6 µM (≈ 2.87 µg/mL)
MIC [4, 20]: 3.7 µM (≈ 1.77 µg/mL)
MIC [5, 21]: 3.7 µM (≈ 1.77 µg/mL)
MIC [6, 22]: 3.7 µM (≈ 1.77 µg/mL)

N=C(N)NCCC[C@@H](N)C(=O)N[C@H](CCCNC(=N)N)C(=O)N[C@H](CCCNC(=N)N)C(=O)N[C@H](Cc1ccccc1)C(=O)N[C@H](Cc1c[nH]c2ccccc12)C(=O)N[C@H](Cc1c[nH]c2ccccc12)C(=O)N[C@H](Cc1ccccc1)C(=O)N[C@H](CCCNC(=N)N)C(=O)N[C@H](CCCNC(=N)N)C(=O)N[C@H](CCCNC(=N)N)C(N)=O [BM2, reference compound] (HELM PEPTIDE1{[dR].[dR].[dR].[dF].[dW].[dW].[dF].[dR].[dR].[dR].[am]}$$$$V2.0)
IC50 [1]: 10.4 ± 2.7 µM
IC50 [7]: 1.1 µM
MIC for growth inhibition, A. fumigatus ([2]; ATCC 13073): >150 µM
MIC for growth inhibition, C. albicans ([3]; SC5314): 15 µM
MIC for growth inhibition, C. glabrata ([4]; ATCC 90030): 150 µM
MIC for growth inhibition, C. parapsilosis ([5]; ATCC 22019): 26 µM
MIC for growth inhibition, C. tropicalis ([6]; Ct016): 4.7 µM

O=c1c2ccccc2[se]n1-c1ccccc1 [Ebselen, reference compound]
IC50 [1, 15]: 0.16 ± 0.01 µM
IC50 [7, 16]: 0.12 µM
MIC [2, 17]: 24 µM (≈ 6.58 µg/mL)
MIC [3, 19]: 7.5 µM (≈ 2.06 µg/mL)
MIC [4, 20]: 7.5 µM (≈ 2.06 µg/mL)
MIC [5, 21]: 24 µM (≈ 6.58 µg/mL)
MIC [6, 22]: 11 µM (≈ 3.02 µg/mL)

CN(C)CCCNc1ncnc2c1sc1nc(N3CCCCC3)c3c(c12)CCCC3 [Compound 16]
IC50 [1, 15]: 9.1 ± 1 µM
IC50 [7]: 11.1 µM
MIC [2, 17]: 15 µM (≈ 6.37 µg/mL)
MIC [3, 18]: 15 µM (≈ 6.37 µg/mL)
MIC [3, 19]: 15 µM (≈ 6.37 µg/mL)
MIC [4, 20]: 11 µM (≈ 4.67 µg/mL)
MIC [5, 21]: 15 µM (≈ 6.37 µg/mL)
MIC [6, 22]: 28 µM (≈ 11.9 µg/mL)

CCOc1ccc2nc3cc(NC(=O)c4cccc(Br)c4)ccc3c(N)c2c1 [Compound 5]
IC50 [1, 8]: 1.3 ± 0.3 µM
IC50 [7]: 0.46 ± 0.04 µM
MIC [2, 9]: > 75 µM
MIC [3, 10]: 6.5 µM (≈ 2.84 µg/mL)
MIC [4, 11]: 5.8 µM (≈ 2.53 µg/mL)
MIC [5, 12]: 7.5 µM (≈ 3.27 µg/mL)
MIC [6, 13]: 7.5 µM (≈ 3.27 µg/mL)
